{
  "source": "patent US10793566B2",
  "about": "“Bruton's tyrosine kinase inhibitors” (Zibo Biopolar Changsheng Pharmaceutical Co. Ltd., priority 2016, dated 2020)",
  "key": {"LYN": {"biological_target": "LYN (Homo sapiens (Human), UniProt P07948)", "sequence (P07948 whole entry, species assumed)": "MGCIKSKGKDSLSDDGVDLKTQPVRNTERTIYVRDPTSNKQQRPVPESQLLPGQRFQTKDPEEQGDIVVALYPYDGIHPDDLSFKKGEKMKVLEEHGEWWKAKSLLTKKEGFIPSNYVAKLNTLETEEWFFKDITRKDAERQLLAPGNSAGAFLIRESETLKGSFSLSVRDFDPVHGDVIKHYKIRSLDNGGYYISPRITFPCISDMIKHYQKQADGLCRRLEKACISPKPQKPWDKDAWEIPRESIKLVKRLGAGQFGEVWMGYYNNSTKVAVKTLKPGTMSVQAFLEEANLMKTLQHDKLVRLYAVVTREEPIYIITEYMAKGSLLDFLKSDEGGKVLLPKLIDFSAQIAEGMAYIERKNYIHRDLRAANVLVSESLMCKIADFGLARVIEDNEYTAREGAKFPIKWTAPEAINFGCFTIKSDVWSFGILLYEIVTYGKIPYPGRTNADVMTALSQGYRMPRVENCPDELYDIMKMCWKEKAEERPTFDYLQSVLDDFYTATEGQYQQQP", "experiment": "LYN kinase assay (HTRF)", "format": "biochemical", "details": "[ATP]=20 μM, LYN=0.12 nM", "method": "Btk Kinase Assay and Other Kinases Assay Btk kinase activity was determined using a homogenous time resolved fluorescence (HTRF) methodology. Measurements were performed in a reaction volume of 15 μL using 384-well assay plates. Kinase enzyme, inhibitor, ATP and 1 μM peptide substrate were incubated in a reaction buffer compose of Hepes50 mM (pH7.0), NaN3 0.02%, BSA 0.01%, Orthocanadate 0.1 mM. After one hour, the kinase reaction was quenched by the addition of E t-labeled antibody and XL-665 in 1×Detection buffer containing 60 mM EDTA (Cisbio), and the mixture was allowed to incubate for one hour. The HTRF signal was measured on a multimode plate reader (EnVision Multilabel Reader, Perkin Elmer) with an excitation wavelength (λEx) of 330 nm and detection wavelengths (λEm) of 615 and 665 nm. Activity was determined by the ratio of the fluorescence at 665 nm to that at 615 nm. For each compound, enzyme activity as measured at various concentrations of compound, Negative control reactions were performed in the absence of inhibitor in two replicates and eight no enzyme controls were used to determine baseline fluorescence levels. IC50s were obtained according to the equation: […] For LYN assay, [ATP]=20 μM, LYN=0.12 n M. For LCK assay, [ATP]=20 μM, LCK=0.2 nM. For BLK assay, [ATP]=20 μM, BLK=0.6 n M."}, "Ramos cells": {"system": "Ramos cells", "experiment": "Calcium flux assay, anti-IgM stimulated Ramos cells", "format": "cell-based", "details": "Homo sapiens, IgM-induced calcium influx, read-out: Ramos Ca Flux", "method": "Calcium flux fluorescence-based assays were performed in aFDSS7000EX (Hamamatsu Photonics) fluorometric imaging plate reader according to manufacturer instructions. Compounds to be assayed were dissolved in DMSO, diluted to appropriate concentrations in Ca^2+ buffer ranging from 0 to 10 μM (at a dilution factor of 0.1), added 5 μl (6 X) to each well (the final DMSO concentration was 0.1% in each well). Then 12.5 μL 2× dye loading solution (Fluo-4 NW Calcium Assay Kits, Invitrogen) was added per well of a 384-well plate. Afterwards, actively growing Ramos cells (ATCC) in RPM1640 medium supplemented with 10% FBS (Invitrogen) were washed and re-plated in assay buffer (from Fluo-4 NW Calcium Assay Kits, Invitrogen) to approximately 6.4×10^6/ml (80000 cells/12.5 μL in 384-well plates). The plates were incubated at 37° C. for 30 minutes, then at room temperature for an additional 30 minutes. The plates were now ready to be used in an experiment. Immediately after the transfer and a 10-s recording of baseline fluorescence, the compound treated cells were stimulated with a goat anti-human IgM antibody ([…]; Jackson Immuno Research) and read in a FDSS for 240 seconds. Difference between the signal and that at baseline, designated adjusted relative fluorescence unit, was calculated by using a custom Excel (Microsoft, Redmond, Wash.) template to determine IgM-induced calcium influx and its inhibition by compounds. The table below show the result."}},
  "data": [
    {"smiles": "C=CC(=O)N1CC[C@@H](n2nc(-c3ccc(Oc4ccccc4)cc3)c3cnccc32)C1", "note": "[Example 1, (R)-1-(3-(3-(4-phenoxyphenyl)-1H-pyrazolo[4,3-c]pyridin-1-yl)pyrrolidin-1-yl)prop-2-en-1-one]", "values": [
      {"measurement": "IC50", "setting": "LYN", "value": "≥ 10000", "unit": "nM"},
      {"measurement": "IC50", "setting": "Ramos cells", "value": "10 to 100", "unit": "nM"}
    ]}
  ]
}
